As usually defined, the inhibition is the relative decrease from the control value, in per cent.

The values that follow come from patent US20180021467A1, “METHOD OF BLOCKING PERCEPTION OF MALODOR” (Monell Chemical Senses Center, priority 2015, published 2018).

For assay [1], the target named is T1, TAAR5 (Homo sapiens, UniProt O14804).
T1 sequence (O14804 1-337): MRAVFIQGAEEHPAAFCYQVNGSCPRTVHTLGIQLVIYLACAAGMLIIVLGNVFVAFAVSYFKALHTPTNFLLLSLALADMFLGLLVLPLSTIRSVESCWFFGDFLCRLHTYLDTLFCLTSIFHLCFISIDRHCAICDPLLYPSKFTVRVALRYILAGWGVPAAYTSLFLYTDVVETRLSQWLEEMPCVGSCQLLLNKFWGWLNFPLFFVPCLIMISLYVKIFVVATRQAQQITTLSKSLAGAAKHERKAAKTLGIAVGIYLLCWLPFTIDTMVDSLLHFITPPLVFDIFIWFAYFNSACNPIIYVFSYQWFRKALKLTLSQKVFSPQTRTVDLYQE
In words: Antagonist screen of odor library on TAAR5 with agonist TMA (Dual-Glo luciferase assay, Hana3A cells). The assay is classed as cell-based. The arrangement: TAAR open reading frames were amplified from pooled human genomic DNA using Phusion polymerase and subcloned into a pCI expression vector; Rho tag (first 20 residues of human rhodopsin); expressed in transfected cells; host or cells: Hana3A cells. Conditions: for inhibition at 30 µM: read-out: Percent Inhibition. Here is the method: We screened a TAAR of interest, TAAR5, with the agonist TMA added at the EC80 concentration, against a proprietary small-molecule library to identify antagonists. TAAR open reading frames were amplified from pooled human genomic DNA using Phusion polymerase and subcloned into a pCI expression vector (Promega) containing the first 20 residues of human rhodopsin (Rho tag). […] Hana3A cells were transfected with 5 ng/well of RTP1S, 5 ng/well of pRL-SV40, 10 ng/well of CRE-luciferase, 2.5 ng/well of M3, and 5 ng/well of odorant receptor. 1M odorant stocks were diluted in DMSO. 24 hours following transfection, transfection media was removed and replaced with the appropriate concentration of odor diluted from the 1M stocks in CD293 (Gibco). Four hours following odor stimulation luminescence was measured using a Synergy 2 plate reader (Biotek). All luminescence values were divided by the Renilla Luciferase activity to control for transfection efficiency in a given well.
We completed an antagonist screen of a proprietary library of odors, including the 52 odorous compounds identified in FIG. 4 at a concentration of 30 μM.

Assay [2] concerns the target T1, TAAR5. In words: Dose responses on TAAR5 in luciferase assay (antagonist dose-dependent inhibition with TMA at EC80; TMA dose response with antagonist at IC10, IC30, IC50). It is filed as cell-based. On the set-up: TAAR open reading frames were amplified from pooled human genomic DNA using Phusion polymerase and subcloned into a pCI expression vector; Rho tag (first 20 residues of human rhodopsin); expressed in transfected cells; host or cells: Hana3A cells. Conditions: TAAR5 luciferase, vs TMA; for IC50: highest of the three concentrations in FIG. 2, read-out: IC50 concentration of antagonist; for IC10 concentration of antagonist: lowest of the three concentrations in FIG. 2; for IC30 concentration of antagonist: middle of the three concentrations in FIG. 2. The source says:
We screened a TAAR of interest, TAAR5, with the agonist TMA added at the EC80 concentration, against a proprietary small-molecule library to identify antagonists. TAAR open reading frames were amplified from pooled human genomic DNA using Phusion polymerase and subcloned into a pCI expression vector (Promega) containing the first 20 residues of human rhodopsin (Rho tag). The sequences of the cloned receptors were verified by sequencing (3730xl Sequencer, ABI Biosystems). We used the Dual-Glo™ Luciferase Assay System (Promega) to measure receptor responses as previously described in Trimmer, C. et al 2014 High-throughput Analysis of Mammalian Olfactory Receptors: Measurement of Receptor Activation via Luciferase Activity. Journal of Visualized Experiments, (88). doi:10.3791/51640. Hana3A cells were transfected with 5 ng/well of RTP1S, 5 ng/well of pRL-SV40, 10 ng/well of CRE-luciferase, 2.5 ng/well of M3, and 5 ng/well of odorant receptor. 1M odorant stocks were diluted in DMSO. 24 hours following transfection, transfection media was removed and replaced with the appropriate concentration of odor diluted from the 1M stocks in CD293 (Gibco). Four hours following odor stimulation luminescence was measured using a Synergy 2 plate reader (Biotek). All luminescence values were divided by the Renilla Luciferase activity to control for transfection efficiency in a given well.
In a secondary experiment, we ran dose dependent inhibition responses for the top twelve antagonists, i.e., the top 12 compounds identified in FIG. 4. TMA was kept at the EC80 (500 μM) and the twelve antagonists were diluted in a dose response with the highest concentration at 1000 μM. The top five candidate compounds, i.e., phenethyl benzoate, trans-2-nonen-1-ol, isoeugenyl phenlacetate, tributyl-2-acetylcitrate, bis(2-methyl-3-furyl)disulfide, were rescreened using an antagonist dose response at 2500 μM. We determined the IC80 values for those five antagonists. Using those IC80 values, we completed a 3-fold dilution dose response of TMA, starting at 3000 μM, in the presence of our five candidate antagonists. […] It was difficult to determine if the five antagonists were competitive or non-competitive inhibitors using the very high IC80 concentrations of the antagonists.
In another experiment, we evaluated dose responses of TMA in the presence of the antagonist at their IC10, IC30 and IC50 concentrations.

In assay [3] the test system is human perception of TMA odor ("fishy"). In words: Human perceptual ratings of fishiness of TMA with antagonist or control odor (air-dilution olfactometer). It is filed as in vivo. The note with it: human subjects, TMA 3 mM, 1 mM, 0.33 mM, odors intensity-balanced to 1 mM TMA. How it is done: We evaluated the efficacy of the in vitro antagonists on human perception. We asked 10 (FIG. 5A) or 29 (FIG. 5B) subjects to rate how “fishy” and how “pleasant” an odor was. The odors were delivered to the subject using an air-dilution olfactometer (Lundström, J. N., et al., 2010 International Journal of Psychophysiology, 78(2), 179-189; doi:10.1016/j.ijpsycho.2010.07.007) and each trial consisted of one concentration of trimethylamine (either 3 mM, 1 mM, 0.33 mM, or a water blank) combined with either an antagonist or a solvent blank. Subjects used a general labeled magnitude scale to rate how “fishy” the odor smelled and a scale from −10 to +10 to rate the pleasantness.
The antagonists and control odors were intensity-balanced to match the 1 mM concentration of TMA. Trans-2-nonen-1-ol was diluted in Diethyl phthalate (DEP); TMA was diluted in water with NaOH added; Linalool was diluted in DEP. In all trials subjects received air from jars containing water and DEP so that solvent presence could not be used as a cue to the presence of the test odor.

[4] abbreviates: inhibition of TMA/TAAR5 response, test odor at 30 μM, TMA at EC80.

`O=C(Cc1ccccc1)Cc1ccccc1` [1,3-Diphenyl-2-propanone]: in assay [1] (setting [4]), the inhibition at 30 µM came out at 73.1%.

Consider `CCCCCCCCCCCCCCO` [1-Tetradecanol], for which, in assay [1] (setting [4]), the inhibition at 30 µM was 54.1%.

Take `OC1CSC(O)CS1` (stereo not drawn) [2,5-Dihydroxy-1,4-dithiane]: the inhibition at 30 µM in assay [1] (setting [4]) was determined as 67.9%.

For the compound `CC(C=O)Cc1ccc2c(c1)OCO2` (stereo not drawn) [2-Methyl-3-(3,4-methylenedioxyphenyl)-propanal], the inhibition at 30 µM in assay [1] (setting [4]) amounted to 50.1%.

Take `C/C=C(\C=O)c1ccccc1` [2-Phenyl-2-butenal]: the inhibition at 30 µM in assay [1] (setting [4]) is 68.9%.

For `CCCCCCC/C=C/C=O` [2-decenal], the inhibition at 30 µM in assay [1] (setting [4]) came out at 66.4%.

`CC(C)CCCC(C)CCO` (stereo not drawn) [3,7-Dimethyl-1-octanol]: the inhibition at 30 µM in assay [1] (setting [4]) came to 57.1%.

On to `CSCCC=O` [3-(Methylthio)propionaldehyde], for which the inhibition at 30 µM in assay [1] (setting [4]) was 54.5%.

Take `CCCCCC/C=C/C(C)=O` [3-Decen-2-one]: the inhibition at 30 µM in assay [1] (setting [4]) turned out to be 72.5%.

On to `C=CCN=C=S` [Allyl isothiocyanate], for which the inhibition at 30 µM in assay [1] (setting [4]) was 77.4%.

With `CCCCCC(C=O)=Cc1ccccc1` [Alpha-Amylcinnamaldehyde], the inhibition at 30 µM in assay [1] (setting [4]) amounted to 75.8%.

Regarding `C[C@@]12C=CC[C@H]1[C@@H]1CCC3=CC(=O)CC[C@]3(C)[C@H]1CC2` [Androstadienone, Androsta-4,16-dien-3-one], the inhibition at 30 µM in assay [1] (setting [4]) worked out at 76%.

Regarding `O=C(OCc1ccccc1)c1ccccc1` [Benzyl benzoate], the inhibition at 30 µM in assay [1] (setting [4]) was 83.9%.

Consider `c1ccc(CSSCc2ccccc2)cc1` [Benzyl disulfide], for which, in assay [1] (setting [4]), the inhibition at 30 µM is 81%.

`SCc1ccccc1` [Benzyl mercaptan]: in assay [1] (setting [4]), the inhibition at 30 µM is 75.8%.

As to `O=C(Cc1ccccc1)OCc1ccccc1` [Benzyl phenylacetate], the inhibition at 30 µM in assay [1] (setting [4]) was 72.7%.

On to `O=C(OCc1ccccc1)c1ccccc1O` [Benzyl salicylate], for which the inhibition at 30 µM in assay [1] (setting [4]) is 74.2%.

Regarding `Cc1occc1SSc1ccoc1C` [Bis(2-Methyl-3-furyl) disulfide], the inhibition at 30 µM in assay [1] (setting [4]) turned out to be 88.3%. Moreover, in assay [2], the IC50 came to 158 µM, the “IC10 concentration of antagonist” value came out at 31.62 µM and the “IC30 concentration of antagonist” value is 77.62 µM.

As for `Cc1ccc(C(C)C)cc1O` [Carvacrol], the inhibition at 30 µM in assay [1] (setting [4]) is 52.2%.

Turning to `O=CC1CCCCCC1` [Cycloheptanecarbaldehyde], the inhibition at 30 µM in assay [1] (setting [4]) amounted to 64.4%.

As for `CC1COCc2cc3c(cc21)C(C)(C)C(C)C3(C)C` (stereo not drawn) [Galaxolide], in assay [1] (setting [4]), the inhibition at 30 µM worked out at 71.2%.

Regarding `CCCCCC=O` [Hexanal], the inhibition at 30 µM in assay [1] (setting [4]) came to 69.4%.

With `O=C1CCCCCCC/C=C/CCCCCCO1` [Isoambrettolide], the inhibition at 30 µM in assay [1] (setting [4]) is 78.7%.

On to `CC(C)COC(=O)c1ccccc1` [Isobutyl benzoate], for which the inhibition at 30 µM in assay [1] (setting [4]) was 63.3%.

With `CCCCCCCCCCCC(=O)O` [Lauric acid], in assay [1] (setting [4]), the inhibition at 30 µM was found to be 86%.

In the case of `COc1ccc2cc(CCC(C)=O)ccc2c1` [Nabumetone], the inhibition at 30 µM in assay [1] (setting [4]) is 73.8%.

For `O=C(OCCc1ccccc1)c1ccco1` [Phenethyl 2-furoate], the inhibition at 30 µM in assay [1] (setting [4]) was 59.6%.

Turning to `Nc1ccccc1C(=O)OCCc1ccccc1` [Phenethyl anthranilate], in assay [1] (setting [4]), the inhibition at 30 µM turned out to be 92.8%.

Consider `O=C(OCCc1ccccc1)c1ccccc1` [Phenethyl benzoate], for which the inhibition at 30 µM in assay [1] (setting [4]) worked out at 93.5%. Besides, in assay [2], the IC50 was 479 µM, the “IC10 concentration of antagonist” value is 50.11 µM and the “IC30 concentration of antagonist” value came out at 251.19 µM.

In the case of `O=C(Cc1ccccc1)OCCc1ccccc1` [Phenethyl phenylacetate], the inhibition at 30 µM in assay [1] (setting [4]) was found to be 88.9%.

In the case of `O=C(OCCc1ccccc1)c1ccccc1O` [Phenethyl salicylate], the inhibition at 30 µM in assay [1] (setting [4]) was 85%.

On to `O=C1CCCCCCCCCCCCCCO1` [Thibetolide], for which, in assay [1] (setting [4]), the inhibition at 30 µM stood at 81%.

With `CC/C=C/CC/C=C/C=O` [Trans, trans-2,6-Nonadienal], the inhibition at 30 µM in assay [1] (setting [4]) stood at 71.4%.

Consider `COC(=O)c1ccccc1/N=C/CC(C)CCCC(C)(C)O` (stereo not drawn) [aurantiol], for which the inhibition at 30 µM in assay [1] (setting [4]) stood at 79.6%.

Consider `OCc1ccccc1` [benzyl alcohol], for which the inhibition at 30 µM in assay [1] (setting [4]) was determined as 62.5%.

Regarding `CC/C=C\CCC=O` [cis-4-Heptenal], in assay [1] (setting [4]), the inhibition at 30 µM worked out at 61.5%.

For `CCc1occc(=O)c1O` [ethyl maltol, 2-Ethyl-3-hydroxy-4H-pyran-4-one], in assay [1] (setting [4]), the inhibition at 30 µM was determined as 72.5%.

Take `CC(C)=CCC/C(C)=C/CO` [geraniol]: the inhibition at 30 µM in assay [1] (setting [4]) stood at 81.3%.

With `CC(=O)C1(C)CC2=C(CCCC2(C)C)CC1C` (stereo not drawn) [iso E super, isocyclemone E], the inhibition at 30 µM in assay [1] (setting [4]) amounted to 69.6%.

Regarding `C=CC(C)(O)CCC=C(C)C` (stereo not drawn) [linalool, reference compound], the in vitro antagonism result in assay [1] (hTAAR5) is recorded as “did not show in vitro antagonism”. The “effect on perceived fishy rating of TMA” value in assay [3] is reported as “no effect on these fishy ratings”; in assay [3] (listed as Linalool), “does not”.

In the case of `CCCCCCCCCCCCCC(=O)O` [myristic acid], the inhibition at 30 µM in assay [1] (setting [4]) was 59.1%.

Take `O=C1CCCC=CCCCCCCCCCC1` [velvione, 5-Cyclohexadecen-1-one]: in assay [1] (setting [4]), the inhibition at 30 µM is 76%.

Consider Tributyl-2-Acetylcitrate, for which the “Percent Inhibition” value in assay [1] (setting [4]) stood at 87.83%. Further, in assay [2], the IC50 came out at 242 µM, the “IC10 concentration of antagonist” value was 74.14 µM and the “IC30 concentration of antagonist” value stood at 194.98 µM.
